Data: BindingDB's records for doi:10.1021/jm970560h (Warner-Lambert, 1998)

Target: Sterol O-acyltransferase 1 (ACAT) (Mus musculus) (UniProt Q61263)
Experiment: Inhibition of Acyl coenzyme A:cholesterol acyltransferase by cellular MAI2 assay

Sequence of Sterol O-acyltransferase 1 (ACAT) (Mus musculus) (Q61263 whole entry, looked up): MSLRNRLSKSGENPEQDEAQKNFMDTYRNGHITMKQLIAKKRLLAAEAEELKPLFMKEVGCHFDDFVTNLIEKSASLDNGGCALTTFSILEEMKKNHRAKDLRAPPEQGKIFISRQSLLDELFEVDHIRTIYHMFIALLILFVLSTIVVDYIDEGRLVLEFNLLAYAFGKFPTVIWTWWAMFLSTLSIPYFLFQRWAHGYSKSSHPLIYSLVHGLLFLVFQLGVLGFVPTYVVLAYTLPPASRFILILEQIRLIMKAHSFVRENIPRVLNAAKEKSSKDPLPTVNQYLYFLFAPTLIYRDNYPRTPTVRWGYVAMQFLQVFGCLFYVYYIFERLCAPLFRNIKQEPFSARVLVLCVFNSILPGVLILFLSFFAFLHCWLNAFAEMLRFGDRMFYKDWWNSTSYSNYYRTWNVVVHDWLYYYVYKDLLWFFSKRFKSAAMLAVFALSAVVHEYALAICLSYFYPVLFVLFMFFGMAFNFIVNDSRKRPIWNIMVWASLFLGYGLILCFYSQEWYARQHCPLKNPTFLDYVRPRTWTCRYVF

SMILES: CCCCCCCCCCCCOC(=O)C(C(=O)Nc1c(C(C)C)cccc1C(C)C)c1ccccc1 (stereo unspecified) [N-(2,6-Diisopropyl-phenyl)-2-phenyl-malonamic acid dodecyl ester]
- IC50: 20 nM
